Assay results published in patent US9289412B2, “Role of limonoid compounds as neuroprotective agents” (The Johns Hopkins University, priority 2006, dated 2016).

Columns and labels:
[1] = system: hippocampal cultures (HIV-1 Tat toxicity); experiment: HIV-1 Tat toxicity assay, MTT viability, mixed hippocampal cultures; assay type: cell-based, rat; conditions: Tat 500 nM; for protection from HIV-1 Tat toxicity, in words (FIG. 4B): 1 h preincubation, GPI 1046 10 μM, Resveratrol 10 μM; for dose dependence of protection from HIV-1 Tat toxicity (FIG. 7): range of concentrations up to 10 μM
Source text: We sought to evaluate the protective efficacy of a number of modified terpenoid compounds against the against many different neurotoxins, ranging from the chemotoxic 6-OHDA, NMDA, 3-nitropropionic acid (3-NP), and viral proteins such as Tat and gp120. Thus, we established an in vitro neuroprotection assay using rat mixed hippocampal cultures, in which we evaluated the protective efficacy of neuroprotective compounds disclosed herein. The oxidative stressor 3-NP was used to elicit toxicity in the rat hippocampal cultures to mimic the oxidative damage, reactive oxygen species production and ensuing neurodegeneration resulting from HIV infection. Another measure of neurotoxicity which results from HIV infection was evaluated by exposure of the hippocampal cultures to HIV-1 Tat (Li et al (2005), Neurotox Res, 8(1-2): 119-134).
Rat mixed hippocamal neuronal cultures were generated from freshly dissected rat hippocampi (embryonic day 18) in neurobasal media containing 5% fetal bovine serum and 2% B27 supplement. The cells were plated into 96 well plates at a density of 4×10^5 cells/mL and routinely used on days 11-14 following culturing. Cell viability was assessed with MTT [3-(4,5-dimethylthiazol-2-yl)-2,5-diphenyltetrazolium bromide] assay. The MTT assay is based on the ability of a mitochondrial dehydrogenase enzyme from viable cells to cleave the tetrazolium rings of the pale yellow MTT and form dark blue formazan crystals. See Mosmann (1983), J Immunol Methods, 65(1-2):55-63. These crystals are largely impermeable to cell membranes, and thus accumulate within healthy cells. The resultant formazan precipitates are solubilized with DMSO and read on a multiwell scanning spectrophotometer (ELISA reader). The number of surviving cells is directly proportional to the level of the formazan product created.
Cultures were preincubated with GPI 1046 or Resveratrol for one hour prior to an 18 hour exposure to 3 mM 3-NP. […] The same neuroprotective compounds were evaluated for efficacy against HIV-1 Tat protein toxicity using the same 1 hour preincubation protocol.

[2] = system: rat mixed hippocampal cultures; experiment: 3-NP neurotoxicity assay, MTT viability, rat mixed hippocampal cultures; assay type: cell-based; conditions: for protection from oxidative damage elicited by 3-NP, in words (FIG. 4A): 3 mM 3-NP 18 h, GPI 1046 1 μM, Resveratrol 25 μM; for protection against 3-NP (FIG. 5): 3 mM 3-NP, approximate values
[3] = system: rat mixed hippocampal cultures; experiment: Titration of 3-NP for neurotoxic effects, MTT viability; assay type: cell-based; conditions: 3 mM 3-NP, 18 hours
Procedure: FIG. 3 is a bar graph showing the effect of a series of 3-nitropropionic acid (3-NP) concentrations (0.5-10 mM) on survival of mixed hippocampal cell cultures in a [3-(4,5-dimethylthiazol-2-yl)-2,5-diphenyl tetrazolium bromide] (MTT) viability assay. Absorbance at 595 nm (corresponding to the absorbance of the reduced MTT formazan product) is directly proportional to cell viability.

[4] = system: human fetal neuronal cultures; experiment: 3-NP toxicity, MTT viability, human fetal neuron cultures; assay type: cell-based; conditions: 3-NP 3 mM; Limonin 0.1-10 μM
Procedure: (§1) FIG. 9 is a set of bar graphs showing the results of an MTT viability assay of human fetal neuron cultures in which the effect of (A) 3-NP (3 mM) or (B) 6-OHDA (100 μM) is tested alone or in the presence of a range of concentrations of Limonin (0.1-10 μM).
(§2) Finally, we sought to determine if the compounds tested in rat neuronal cultures would also be effective on cultured human fetal neurons.

[5] = system: mixed hippocampal cell cultures (NMDA excitotoxicity); experiment: NMDA excitotoxicity, MTT viability, mixed hippocampal cultures; assay type: cell-based, rat; conditions: NMDA 100 μM
Procedure: (§3) FIG. 8 is a set of bar graphs showing the results of an MTT viability assay of mixed hippocampal cell cultures in which the effect of (A) NMDA (100 μM) or (B) 6-OHDA (100 μM) is tested alone or in the presence of a range of concentrations of Limonin (0.1-10 μM).
(§4) We also tested the ability of Limonin to protect against N-methyl-D-Aspartic Acid (NMDA) excitotoxicity, and 6-Hydroxydopamine (6-0HDA), a dopaminergic neurotoxin.

[6] = system: human fetal neuronal cultures; experiment: 6-OHDA toxicity, MTT viability, human fetal neuron cultures; assay type: cell-based; conditions: 6-OHDA 100 μM; Limonin 0.1-10 μM
Procedure: as §1, §2

[7] = system: mixed hippocampal cell cultures (6-OHDA neurotoxicity); experiment: 6-OHDA neurotoxicity, MTT viability, mixed hippocampal cultures; assay type: cell-based, rat; conditions: 6-OHDA 100 μM
Procedure: as §3, §4

With `CCC(C)(C)C(=O)C(=O)N1CCC[C@H]1C(=O)OCCCc1cccnc1` [GPI 1046, reference compound] the “protection from HIV-1 Tat toxicity, in words (FIG. 4B)” value [1] was “protected hippocampal neurons from Tat toxicity” and the “protection from oxidative damage elicited by 3-NP, in words (FIG. 4A)” value ([2]; 1 h preincubation) was “significantly protected”.

In the case of `CC(=O)O[C@@H]1CC2C(C)(C)C(=O)C=C[C@]2(C)C2CC[C@@]3(C)[C@H](c4ccoc4)OC(=O)[C@H]4O[C@]43[C@@]21C` (some centres unmarked) [GEDUNIN], the “neuroprotection from HIV-1 Tat toxicity, in words” value ([1]; 1-10 μM compound) is reported as “nearly complete neuroprotection”, the “dose dependence of protection from HIV-1 Tat toxicity (FIG. 7)” value [1] is reported as “dose dependently protected” and the “protection against 3-NP (FIG. 5)” value [2] is reported as “about 50%”. It also gave an inhibition at 10 µM ([2]; Rattus norvegicus, Table 2, vs 3 mM 3-NP 18 h, 1 h preincubation, test concentration (10 μM), read-out: % Protection) of 40%.

With `O=C(O)CC[N+](=O)[O-]` [Compound 3-NP, 3-nitropropionic acid] the cytotoxicity induced [3] was 25-35%.

With `Oc1ccc(C=Cc2cc(O)cc(O)c2)cc1` [Resveratrol, reference compound] the “protection from HIV-1 Tat toxicity, in words (FIG. 4B)” value [1] was “protected hippocampal neurons from Tat toxicity” and the “protection from oxidative damage elicited by 3-NP, in words (FIG. 4A)” value ([2]; 1 h preincubation) was “significantly protected”.

With `CC1(C)O[C@H]2CC(=O)OC[C@]23[C@H]2CC[C@@]4(C)[C@H](c5ccoc5)OC(=O)[C@H]5O[C@]54[C@]2(C)C(=O)C[C@@H]13` [Limonin] the “dose dependence of protection from HIV-1 Tat toxicity (FIG. 7)” value [1] was “dose dependently protected”, the “protection of human fetal neuronal cultures against 3-NP (FIG. 9A)” value [4] was “dose-dependently protected” and the “protection against NMDA at highest dose” value ([5]; Limonin 10 μM) was “complete protection”. The “dose dependence of block of NMDA neurotoxicity (FIG. 8A)” value ([5]; Limonin 0.1-10 μM) was “dose-dependently blocked the neurotoxicity”, the “protection of human fetal neuronal cultures against 6-OHDA (FIG. 9B)” value [6] was “dose-dependently protected” and the “protection against 6-OHDA at highest dose” value ([7]; Limonin 10 μM) was “complete protection”. The “dose dependence of block of 6-OHDA neurotoxicity (FIG. 8B)” value ([7]; Limonin 0.1-10 μM) was “dose-dependently blocked the neurotoxicity”.

In the case of `C[C@@H]([C@H]1OC(C)(C)[C@@H](O)[C@H]1O)[C@@H]1CC[C@]2(C)C3=CC[C@H]4C(C)(C)C(=O)CC[C@]4(C)[C@H]3CC[C@@]12C` [odoratone], the “protection against 3-NP (FIG. 5)” value [2] is reported as 60-70%.
